Source: patent US20200216906A1, “METHODS AND COMPOSITIONS RELATING TO THE DIAGNOSIS AND TREATMENT OF CANCER” (PRESIDENT AND FELLOWS OF HARVARD COLLEGE, priority 2015, published 2020)
pEC50: −log10 of the molar value.

Assays:
Panc02.13 cells = assay: 3D spheroid growth assay, Panc02.13 (GFP/parental) cells; conditions: read-out: EC50 in 3D-spheroid assays; 3D-spheroid (Hippo-on)
[1] = tested on: pancreatic cancer cell lines; assay: Kinetic cell growth assay, panel of pancreatic cancer cell lines; assay type: cell-based, human; conditions: low density growth conditions (Hippo-Off); read-out: EC50 on pancreatic cancer cell growth
Description: (§1) The effect of gemcitabine on pancreatic cancer cell growth was studied using a kinetic cell growth assay. Pancreatic cancer cells were plated on 96-well plates (Essen ImageLock, Essen Instruments, MI, US) at varying densities (2-4×10^3 for low density or 15-20×10^3 for high density experiments). Small molecule inhibitors at different doses were added 24 hours after plating and cell confluence was monitored with Incucyte Live-Cell Imaging System and software (Essen Instruments). Confluence was observed every hour for 48-144h or until the control (DMSO only) samples reached 100% confluence.
FIG. 20A illustrates the kinetic cell growth assay to determine the effect of gemcitabine in a panel of pancreatic cancer cell lines. Cells are plated at low crowding conditions (10-25% confluence) and 24 hours later exposed to gemcitabine in a dose-dependent manner. They are imaged every 1-3 hours until control (vehicle) treated cells reach 100% confluence. This assay is not confounded by the fact that the time required for each cell line to reach 100% confluence may be very different (as the cell lines have different doubling times). A dose response effect of gemcitabine on cell growth for 16 pancreatic cancer cell lines is shown in FIGS. 20B, 3, 31A-31C and 28, where the range of previous studies is also shown. […] Similar responses to gemcitabine were found in liver cancer cell lines (Huh7 and FOCUS) and untransformed (HEK293) cell lines (FIGS. 3, 31A-31C).
as §1, with “Kinetic Cell growth assay. The” for “The”, “(2-4X103” for “(2-4×10^3”, “15-20X103” for “15-20×10^3”, “Incucyte™” for “Incucyte”

[2] = tested on: Panc02.13 cells with NF2 depletion; assay: High-density spheroid assay, NF2-depleted Panc02.13 cells; assay type: cell-based, human
Description: In cells at low cell density, where YAP is localized to the nucleus, presumably YAP dependent transcription is turned on. At high density, YAP is in the cytoplasm, transcription is blocked and resistance to gemcitabine is high. Given these correlations it was asked whether inactivation of Hippo pathway could restore gemcitabine sensitivity in crowded conditions. Expression of a non-phosphorylatable form of YAP (YAPS6A) in Panc02.13 pancreatic cancer cells causes constitutive nuclear localization of exogenous YAP even at high crowding (data not shown).

CDA = CDA expression after verteporfin treatment; assay type: cell-based, human; conditions: verteporfin treatment of Panc02.13 cells, p<0.05
Description: Cells were serum-starved for 24 h and total cellular RNA was isolated using an RNeasy™ Mini Kit (QIAGEN, Santa Clara, Calif.). mRNA levels for the EMT-related genes were determined using the RT^2 Profiler™ qPCR array (SA Biosciences Corporation, Frederick, Md.). Briefly, 1 μg of total RNA was reverse transcribed into first strand cDNA using an RT^2 First Strand™ Kit (SA Biosciences). The resulting cDNA was subjected to qPCR using human gene-specific primers for 75 different genes, and five housekeeping genes (B2M, HPRT1, RPL13A, GAPDH, and ACTB). The qPCR reaction was performed with an initial denaturation step of 10 min at 95° C., followed by 15 s at 95° C. and 60 s at 60° C. for 40 cycles using an Mx3000P™ QPCR system (Stratagene, La Jolla, Calif.).
The activity of the Hippo pathway not only affected the efflux of gemcitabine but also its major metabolite, dFdU (FIG. 22B).
RNA extraction and quantitative real-time PCR. Cells were serum-starved for 24 h and total cellular RNA was isolated using an RNeasy Mini Kit (QIAGEN, Santa Clara, Calif.). mRNA levels for the EMT-related genes were determined using the RT2 Profiler™ qPCR array (SA Biosciences Corporation, Frederick, Md.). Briefly, 1 μg of total RNA was reverse transcribed into first strand cDNA using an RT2 First Strand Kit (SA Biosciences). […]

[3] = tested on: Miapaca2-YAPS6A xenografts; assay: Mouse xenograft, Miapaca2-YAPS6A; assay type: in vivo; conditions: LC-MS/MS, p<0.01
Description: To assess the gemcitabine response to Hippo pathway inactivation in tumors a mouse xenograft model of pancreatic carcinoma cells and patient-derived xenograft (PDX) models from a variety of solid tumors including human cancers from non-small cell lung, esophagus, breast, mesothelium, ovary, colon, head and neck, sarcoma, and cholangiocarcinoma were used (FIG. 30). In mouse xenograft studies, two human pancreatic cancer cell lines (Miapac2 and Panc02.13) expressing GFP or YAPS6A were injected into athymic mice. Both parental or GFP expressing cells grew rapidly, producing palpable tumors in 5-10 days. When the tumors were ˜200 mm^3 (as measured using a caliper), mice were randomized into treatment and control groups. The […] received i.p. saline injections on alternate days for two weeks, and the latter received gemcitabine (20 mg/kg in Miapaca2-YAPS6A and 50 mg/Kg in Panc02.13-YAPS6A cohorts).
Tumorigenicity in Nude Mice. All in vivo experiments were performed using 6-week-old to 8-week-old athymic nude mice. Mice were maintained in laminar flow rooms with constant temperature and humidity. Miapaca2 or Panc02.13 cells were inoculated subcutaneously (s.c.) into each flank of the mice. Cells (2×10^6 in suspension) were injected on day 0, and tumor growth was followed every 2 to 3 days by tumor diameter measurements using vernier calipers. Tumor volumes (V) were calculated using the formula: V=AB2/2 (A, axial diameter; B, rotational diameter). When the outgrowths were • 200 mm^3, mice were divided at random into two groups (control and treated, n=3-8). The treated group received gemcitabine injection or saline control on alternate days (MWF) for 2 weeks.
Intra-tumor gemcitabine measurements.

H2052 (LATS2) cells = assay: Gemcitabine and dFdU efflux by LC-MS/MS, H2052 cells; assay type: in vitro ADME; conditions: higher in H2052 (LATS2)
Description: Are defects in the Hippo pathway the major cause of gemcitabine sensitivity? […] Restoring the levels of LATS2 in H2052 cells caused an increase in the mRNA and proteins levels of ABCG2 and CDA (FIGS. 23C, 36A-36M).

[4] = tested on: Panc02.13 cells expressing YAPS6A; assay: Gemcitabine and dFdU efflux by LC-MS/MS, Panc02.13 YAPS6A vs GFP; assay type: in vitro ADME, human; conditions: less efflux in YAPS6A after gemcitabine treatment, p<0.05
Description: It was considered whether the Hippo pathway might affect the efflux of gemcitabine and/or its metabolites. To assess directly gemcitabine efflux in conditioned media of pancreatic cancer cells both radiolabeled gemcitabine and LC-MS/MS-based methods were used. Panc02.13 cells grown in highly crowded conditions (Hippo-ON) pumped out 2-3-fold more radiolabeled gemcitabine (counts per μg protein) compared with cells grown in less crowded conditions (Hippo-OFF) (FIG. 22A). Another pathway of inactivation and export is the enzymatic conversion of gemcitabine to a uracil derivative (2′,2′-difluorodeoxyuridine, dFdU) by deamination catalyzed by cytidine deaminase (CDA)(Veltkamp et al., 2008). The efflux of gemcitabine and its deaminated metabolite, dFdU was measured by LC-MS/MS (24) in Panc02.13 cells expressing YAPS6A or vector control after gemcitabine treatment (FIG. 22B).

pEC50 [1] | Reduction in intra-tumor accumulation of dFdU vs parental control xenografts [3] | Effluxed dFdU in media, H2052 (LATS2) vs parental H2052 (LATS2−/−) (H2052 (LATS2) cells) | dFdU effluxed, YAPS6A vs GFP expressing cells [4] | Compound | pEC50 (Panc02.13 cells) | Sensitivity after NF2 depletion [2] | Increase in CDA levels (CDA)
> 6.30 |  |  |  | verteporfin | < 5.30 | restored sensitivity | 3 fold
 | > 4 fold | 2-3 fold | 5 fold | O=c1ccn([C@@H]2O[C@H](CO)[C@@H](O)C2(F)F)c(=O)[nH]1 [dFdU, 2′,2′-difluorodeoxyuridine] |  |  | 
